# Test results from patent publication US20200009173A1, “TRIAZOLE-CONTAINING MACROLIDES AND OPHTHALMIC USES THEREFOR” (Tetard, Inc., priority 2017, published 2020).
# Tests used:
# Staphylococcus aureus = assay: MIC, Staphylococcus aureus; format: cell-based; details: N = 201
# Mycobacterium avium = assay: MIC, Mycobacterium avium; format: cell-based; details: N = 30
# Listeria monocytogenes = assay: MIC, Listeria monocytogenes; format: cell-based; details: N = 10
# [1] = system: Streptococcus pyogenes (a); assay: MIC, Streptococcus pyogenes (a); format: cell-based; details: N = 407
# Streptococcus mitis = assay: MIC, Streptococcus mitis; format: cell-based; details: N = 73
# S. pneumoniae = assay: MICs of solithromycin and comparator drugs, S. pneumoniae (30 species); format: cell-based
# From the text: (§1) EXAMPLE. The formulations described herein show overall higher potency against ocular pathogens than commercial standards.
# (§2) MICs (μg/ml) of Solithromycin and Comparator Drugs against Bacterial Species
# Chlamydia trachomatis = assay: MIC, Chlamydia trachomatis; format: cell-based; details: N = 10
# Moraxella catarrhalis = assay: MIC, Moraxella catarrhalis; format: cell-based; details: N = 21
# Neisseria gonorrhoeae = assay: MIC, Neisseria gonorrhoeae; format: cell-based; details: N = 34
# Corynebacterium spp. = assay: MIC, Corynebacterium spp.; format: cell-based; details: N = 10
# Ureaplasma urealyticum = assay: MIC, Ureaplasma urealyticum; format: cell-based; details: N = 10
# Legionella pneumophila = assay: microbe, parasite or virus in culture; format: cell-based
# Streptococcus pyogenes = assay: MIC, Streptococcus pyogenes; format: cell-based
# [2] = system: Haemophilus parainfluenzae; assay: MIC, Haemophilus parainfluenzae; format: cell-based; details: N = 11
# [3] = system: phagocytized L. monocytogenes; assay: Activity against phagocytized L. monocytogenes; format: cell-based
# [4] = speed of uptake and ultimate tissue concentration
# MMP9 = MMP9 activity in PMA-stimulated U937 cells (gelatin zymography); format: cell-based, human; details: Homo sapiens, U-937
# Method: EXAMPLE. […] Cells. The human monocytic cell line U937 was obtained from the American Type Culture Collection (ATCC, Rockville, Md.). PBMCs from COPD patients were obtained from Brompton hospital and separated by AccuSPIN (Sigma-Aldrich). […] U937 cells were differentiated into adherent macrophage-like morphology by exposure to PMA (50 ng/ml) for 48 h in complete growth medium. Cell viability was assessed microscopically by trypan blue staining. Cell toxicity was determined by MTT assay as needed. This study was approved by the ethics committee of the Royal Brompton Hospitals, and all subjects gave written informed consent. Zymography. MMP9 enzyme activity was measured by gelatin zymography. […] After electrophoresis, gels were incubated and rinsed with Novex® zymogram renaturing buffer (Invitrogen) for 30 min at room temperature. The gels were then rinsed in Novex® zymogram developing buffer (Invitrogen) for 30 min at room temperature prior to overnight incubation in the developing buffer at 37° C. After incubation, the gels were stained using a Colloidal Blue Staining Kit (Invitrogen) to visualize the zymogen bands. Statistical analysis. The results were expressed as the mean±SEM. Comparisons of data in two groups were performed using the Student's t test or the Wilcoxon signed rank test. Multiple comparisons were made by one-way ANOVA with post hoc test (Dunnett's) as appropriate. The difference was considered significant at p<0.05.
# pathogenic bacteria = format: cell-based
# S. epidermidis = assay: MICs of solithromycin and comparator drugs, S. epidermidis (30 species); format: cell-based
# From the text: as §1, §2
# [5] = Protein binding in plasma; format: in vitro ADME
# MSRA = assay: MICs of solithromycin and comparator drugs, MSRA (30 species); format: cell-based
# From the text: as §1, §2
structure (smiles),measurement,setting,value
"CC[C@H]1OC(=O)[C@@](C)(F)C(=O)[C@H](C)[C@@H](O[C@@H]2O[C@H](C)C[C@H](N(C)C)[C@H]2O)[C@](C)(OC)C[C@@H](C)C(=O)[C@H](C)[C@H]2N(CCCCn3cc(-c4cccc(N)c4)nn3)C(=O)O[C@]12C [CEM-101, solithromycin]",MIC50,Staphylococcus aureus,0.12 µg/mL
same,MIC90,Staphylococcus aureus,> 16 µg/mL
same,MIC50,Mycobacterium avium; Mycobacterium avium,1 µg/mL
same,MIC90,Mycobacterium avium; Mycobacterium avium,1 µg/mL
same,MIC Range,Mycobacterium avium,1 µg/mL
same,MIC50,Listeria monocytogenes; Listeria monocytogenes,0.03 µg/mL
same,MIC90,Listeria monocytogenes; Listeria monocytogenes,0.03 µg/mL
same,MIC Range,Listeria monocytogenes,0.03 µg/mL
same,MIC Range,[1],≤0.03-0.5 ^ μg/mL
same,MIC50,[1]; Streptococcus pyogenes,≤ 0.03 µg/mL
same,MIC90,[1]; Streptococcus pyogenes,≤ 0.03 µg/mL
same,MIC Range,Streptococcus mitis,≤0.03-0.25^ μg/mL
same,MIC50,Streptococcus mitis; Streptococcus mitis,≤ 0.03 µg/mL
same,MIC90,Streptococcus mitis; Streptococcus mitis,0.06 µg/mL
same,I (intermediate susceptibility),S. pneumoniae,0%
same,MIC Range,S. pneumoniae,≤0.001-0.25 ^ μg/ml
same,NS (not susceptible),S. pneumoniae,0%
same,S (susceptible),S. pneumoniae,100%
same,MIC50,S. pneumoniae; Streptococcus pneumoniae,0.002 µg/mL
same,MIC90,S. pneumoniae; Streptococcus pneumoniae,0.12 µg/mL
same,MIC50,Chlamydia trachomatis; Chlamydia trachomatis,0.25 µg/mL
same,MIC90,Chlamydia trachomatis; Chlamydia trachomatis,0.25 µg/mL
same,MIC Range,Chlamydia trachomatis,0.125 to 0.5 µg/mL
same,MIC50,Moraxella catarrhalis; Moraxella catarrhalis,0.12 µg/mL
same,MIC90,Moraxella catarrhalis; Moraxella catarrhalis,0.12 µg/mL
same,MIC Range,Moraxella catarrhalis,≤0.008 to 0.5 µg/mL
same,MIC Range,Neisseria gonorrhoeae,0.03 to 0.25 µg/mL
same,MIC50,Neisseria gonorrhoeae; Neisseria gonorrhoeae,0.06 µg/mL
same,MIC90,Neisseria gonorrhoeae; Neisseria gonorrhoeae,0.12 µg/mL
same,MIC50,Corynebacterium spp.; Corynebacterium,0.015 µg/mL
same,MIC90,Corynebacterium spp.; Corynebacterium,0.5 µg/mL
same,MIC Range,Corynebacterium spp.,≤0.008-16 ^ μg/mL
same,MIC Range,Ureaplasma urealyticum,0.004 to 0.063 µg/mL
same,MIC50,Ureaplasma urealyticum; Ureaplasma urealyticum,0.008 µg/mL
same,MIC90,Ureaplasma urealyticum; Ureaplasma urealyticum,0.031 µg/mL
same,MIC50,Legionella pneumophila; Legionella pneumophila,≤ 0.015 µg/mL
same,MIC90,Legionella pneumophila; Legionella pneumophila,≤ 0.015 µg/mL
same,MIC90,Legionella pneumophila; N = 30,≤0.015 µg/mL
same,MIC Range,Legionella pneumophila; N = 30,≤0.015 µg/mL
same,MIC Range,Streptococcus pyogenes; N = 407 (CEM-101),≤0.03-0.5 ^ μg/mL
same,MIC50,Streptococcus pyogenes; Streptococcus pyogenes,≤ 0.03 µg/mL
same,MIC90,"Streptococcus pyogenes; Streptococcus pyogenes, 100 strains",0.03 µg/mL
same,MIC90,"Streptococcus pyogenes; Streptococcus pyogenes, N = 407 (CEM-101), N = 100 (azithromycin)",≤ 0.03 µg/mL
same,MIC50,[2]; Haemophilus parainfluenzae,2 µg/mL
same,MIC90,[2]; Haemophilus parainfluenzae,2 µg/mL
same,MIC Range,[2],1 to 2 µg/mL
same,potency relative to azithromycin,[3],50 fold
same,tissue distribution relative to AZI,[4],10 fold
same,IC50,MMP9,14.9 ± 3.1 µM
same,activity against AZI resistant strains,pathogenic bacteria,active against all AZI resistant strains tested
same,activity at acidic pH relative to AZI,"pathogenic bacteria; acidic pH, including in L. monocytogenes and S. aureus",100-200 fold
same,activity relative to conventional macrolides,pathogenic bacteria; greater activity than conventional macrolides,10 fold
same,intracellular activity relative to AZI,pathogenic bacteria; intracellular,10 fold
same,activity against phagocytized L. monocytogenes and L. pneumophila relative to conventional macrolides,pathogenic bacteria; phagocytized bacteria,50-100 fold
same,I (intermediate susceptibility),S. epidermidis,3%
same,NS (not susceptible),S. epidermidis,17%
same,S (susceptible),S. epidermidis,80%
same,MIC50,S. epidermidis; Staphylococcus epidermidis,0.015 µg/mL
same,MIC90,S. epidermidis; Staphylococcus epidermidis,32 µg/mL
same,fraction unbound,[5],0.14
same,MIC50,MSRA,0.03 µg/mL
same,MIC90,MSRA,64 µg/mL
same,I (intermediate susceptibility),MSRA; 30 species,0%
same,NS (not susceptible),MSRA; 30 species,30%
same,S (susceptible),MSRA; 30 species,70%
